Measurements reported in US7087623B2, “Thiazole and other heterocyclic ligands for mammalian dopamine, muscarinic and serotonin receptors and transporters, and methods of use thereof” (Sepracor Inc., priority 2001, dated 2006).
pIC50: −log10 of the molar value. Where two headings read alike, the source gives them in different places.

What was measured:
[1] = molecular target: T1, human muscarinic M3 receptor (Homo sapiens, UniProt P20309); test: Binding to human muscarinic M3 receptors ([3H]N-methylscopolamine); conditions: for IC50: human, read-out: IC50 (nM) M3
T1 construct: expressed in transfected cells; host or cells: BSR-M3H
T1 sequence (P20309 whole entry): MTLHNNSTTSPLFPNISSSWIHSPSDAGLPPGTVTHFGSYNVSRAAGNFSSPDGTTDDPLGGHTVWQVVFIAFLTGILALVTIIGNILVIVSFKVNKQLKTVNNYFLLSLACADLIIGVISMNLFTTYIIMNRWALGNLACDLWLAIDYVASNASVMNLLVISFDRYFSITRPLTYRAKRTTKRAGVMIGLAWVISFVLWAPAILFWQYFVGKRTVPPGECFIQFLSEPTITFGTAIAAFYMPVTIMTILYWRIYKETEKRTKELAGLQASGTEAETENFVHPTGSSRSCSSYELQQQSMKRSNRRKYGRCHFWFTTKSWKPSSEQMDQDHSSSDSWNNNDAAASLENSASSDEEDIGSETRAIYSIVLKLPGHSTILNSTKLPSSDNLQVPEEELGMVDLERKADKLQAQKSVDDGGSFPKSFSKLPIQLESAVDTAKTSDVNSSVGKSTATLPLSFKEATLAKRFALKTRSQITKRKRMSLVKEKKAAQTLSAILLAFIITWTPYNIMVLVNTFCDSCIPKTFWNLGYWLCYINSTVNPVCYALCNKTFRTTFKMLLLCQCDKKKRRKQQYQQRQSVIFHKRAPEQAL
Procedure: This assay measures binding of [^3H]N-methylscopolamine to human muscarinic M3 receptors. BSR-M3H cells transfected with a plasmid encoding the human muscarinic M3 receptor were used to prepare membranes in modified Tris-HCl pH 7.4 buffer using standard techniques. A 5 μg aliquot of membrane was incubated with 0.29 nM [^3H]N-methylscopolamine for 60 minutes at 25° C. Non-specific binding was estimated in the presence of 1 μM atropine. Membranes were filtered and washed 3 times and the filters were counted to determine [^3H]N-methylscopolamine specifically bound. See Buckley, N. J., Bonner, T. I., Buckley, C. M. and Brann, M. R. Antagonist binding properties of five cloned muscarinic receptors expressed in CHO-K1 cells. Mol. Pharmacol. 35: 469–476, 1989.
The human 5-HT2a and 5-HT2b screens were conducted according to Bonhaus, D. W. et al. Br. J. Pharmacol. 1995, 115, 622. The human […], W. A. et al. J. Neurochem. 1997, 69, 1449. The human 5-HT6 screen was conducted according to Monsama, F. J. et al. Mol. Pharmacol. 1993, 43, 320. The assay to human D3 receptors was conducted according to Sokoloff, P. et al. Nature 1990, 347;146. The human dopamine transporter assay was conducted according to Gu, H. et. al. J. Biol. Chem. 1994, 269 (10);7124; and Giros, B. et al. Trends. Pharmacol. Sci. 1993, 14: 43. The human muscarinic M1–M4 screens were conducted according to Buckley N. J. et al. Mol. Pharmacol. 1989, 35:469.
The human dopamine transporter assay was conducted according to Gu, H. et. al. J. Biol. Chem. 1994, 269 (10);7124 and Giros, B. et al. Trends. Pharmacol. Sci. 1993, 14: 43. The human muscarinic M1–M4 screens were conducted according to Buckley N. J. et al. Mol. Pharmacol. 199, 35:469

[2] = molecular target: T2, human serotonin 5-HT6 receptor (Homo sapiens, UniProt P50406); test: Radioligand binding assay, human 5-HT6 receptors ([3H]LSD)
T2 construct: expressed in transfected cells; host or cells: HeLa/E6-7
T2 sequence (P50406 whole entry): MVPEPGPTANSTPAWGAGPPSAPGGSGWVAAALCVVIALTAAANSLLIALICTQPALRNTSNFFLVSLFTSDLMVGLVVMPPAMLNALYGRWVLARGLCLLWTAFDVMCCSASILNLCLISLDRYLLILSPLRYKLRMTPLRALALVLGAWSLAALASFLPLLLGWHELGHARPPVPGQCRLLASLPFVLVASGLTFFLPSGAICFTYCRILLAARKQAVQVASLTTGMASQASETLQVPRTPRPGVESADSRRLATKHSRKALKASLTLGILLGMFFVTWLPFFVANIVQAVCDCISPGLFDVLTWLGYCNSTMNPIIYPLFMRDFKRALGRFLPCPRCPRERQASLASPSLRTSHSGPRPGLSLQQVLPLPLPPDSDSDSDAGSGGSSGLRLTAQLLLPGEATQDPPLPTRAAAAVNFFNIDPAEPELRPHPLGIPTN
How it was run: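 Membranes from HeLa/E6–7 cells stably expressing human 5-HT6, in modified Tris-HCl pH 7.4, incubated (30 μg) with 1.5 nM [3H]LSD for 120 min at 37° C. Non-specific binding defined with 5 μM 5-HT; bound ligand measured by filtration and counting.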

[3] = molecular target: T3, human dopamine transporter (Homo sapiens, UniProt Q01959); test: Binding to human dopamine transporter ([125I]RTI-55); conditions: for IC50: human, read-out: IC50 (nM) DAT
T3 construct: expressed in transfected cells; host or cells: CHO-K1
T3 sequence (Q01959 whole entry): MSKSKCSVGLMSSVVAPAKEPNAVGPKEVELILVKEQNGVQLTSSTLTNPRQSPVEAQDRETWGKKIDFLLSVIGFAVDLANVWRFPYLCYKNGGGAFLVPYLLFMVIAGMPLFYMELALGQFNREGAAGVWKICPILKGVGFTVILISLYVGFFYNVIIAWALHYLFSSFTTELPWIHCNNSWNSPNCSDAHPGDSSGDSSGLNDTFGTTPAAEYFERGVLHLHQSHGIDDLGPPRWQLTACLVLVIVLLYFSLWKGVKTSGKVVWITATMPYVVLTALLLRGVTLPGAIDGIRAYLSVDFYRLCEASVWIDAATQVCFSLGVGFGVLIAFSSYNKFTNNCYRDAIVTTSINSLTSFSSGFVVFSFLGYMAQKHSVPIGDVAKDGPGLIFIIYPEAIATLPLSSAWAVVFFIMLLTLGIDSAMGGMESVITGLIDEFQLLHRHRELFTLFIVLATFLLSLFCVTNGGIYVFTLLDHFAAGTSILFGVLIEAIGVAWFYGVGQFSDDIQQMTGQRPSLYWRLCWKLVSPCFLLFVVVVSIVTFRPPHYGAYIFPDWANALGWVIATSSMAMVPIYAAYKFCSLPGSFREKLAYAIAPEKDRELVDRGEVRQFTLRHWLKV
Procedure: CHO-K1 cell membranes stably transfected with a plasmid encoding the human dopamine transporter were prepared in modified Tris-HCl pH 7.4 buffer using standard techniques. […] Non-specific binding was estimated in the presence of 10 μM nomifensine. […] Trends. […]

[4] = molecular target: T4, human serotonin 5-HT2C receptor (Homo sapiens, UniProt P28335); test: Radioligand binding assay, human 5-HT2C receptors ([3H]Mesulergine)
T4 construct: expressed in transfected cells; host or cells: CHO-K1
T4 sequence (P28335 33-458): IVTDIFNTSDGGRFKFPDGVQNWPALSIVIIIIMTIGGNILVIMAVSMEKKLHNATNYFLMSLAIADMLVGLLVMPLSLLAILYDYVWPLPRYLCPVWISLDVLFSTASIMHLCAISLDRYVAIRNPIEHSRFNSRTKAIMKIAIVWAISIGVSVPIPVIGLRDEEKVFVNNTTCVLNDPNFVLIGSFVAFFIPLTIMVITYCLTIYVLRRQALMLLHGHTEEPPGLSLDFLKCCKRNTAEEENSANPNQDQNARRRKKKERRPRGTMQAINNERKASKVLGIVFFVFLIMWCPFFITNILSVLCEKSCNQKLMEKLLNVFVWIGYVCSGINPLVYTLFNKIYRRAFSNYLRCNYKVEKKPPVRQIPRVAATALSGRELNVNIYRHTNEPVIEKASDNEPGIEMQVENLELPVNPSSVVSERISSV
How it was run: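 Membranes from CHO-K1 cells stably expressing human 5-HT2C receptor were prepared in modified Tris-HCl pH 7.7 buffer. Non-specific binding was defined with 1 μM mianserin.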

[5] = human, Example 100 table, read-out: IC50 (nM) 5-HT6
[6] = human, Example 100 table, read-out: IC50 (nM) 5-HT2C
[7] = human 5-HT6, Example 16 table, read-out: IC50 (nM) 5-HT6
[8] = human 5-HT2c, Example 16 table, read-out: IC50 (nM) 5-HT2c

IC50 ([1]; Example 100 table) | IC50 [2, 5] | IC50 ([3]; Example 100 table) | Compound | IC50 ([1]; Example 101 table) | IC50 [2, 7] | IC50 ([3]; Example 101 table) | IC50 [4, 8] | other results
< 1000 nM | < 100 nM | > 1000 nM | CN1CCCC1CCNc1nc(C2(c3ccccc3F)CCCCC2)cs1 (racemic) [Compound 128, {4-[1-(2-fluorophenyl)-cyclohexyl]-thiazol-2-yl}-[2-(1-methyl-pyrrolidin-2-yl)-ethyl]-amine] |  |  |  |  | IC50 [4, 6]: < 10 nM
< 1000 nM | < 100 nM | > 1000 nM | CN1CCCC1CCNc1nc(C2(c3ccccc3F)CCCCC2)cs1 (single isomer, unassigned) [Compound 130, {4-[1-(2-fluorophenyl)-cyclohexyl]-thiazol-2-yl}-[2-(1-methyl-pyrrolidin-2-yl)-ethyl]-amine] |  |  |  |  | IC50 [4, 6]: < 10 nM
 |  |  | CN1CCN(c2nc(C3(c4csc5ccc(Cl)cc45)CCOCC3)cs2)CC1 [Compound 36] | > 1000 nM | < 100 nM | > 1000 nM | < 1000 nM | 
 |  |  | Clc1ccc(C2(c3csc(N4CCNCC4)n3)CCOCC2)cc1 [Compound 37] | < 500 nM | < 100 nM | > 1000 nM | < 1000 nM | 
 |  |  | CN1CCN(c2nc(C3(c4ccccc4)CCOCC3)cs2)CC1 [Compound 59] |  |  |  |  | pIC50 [1]: < 6.00; IC50 ([2]; IC50 (nM) 5-HT6, human 5-HT6, Example 16 table): < 100 nM; pIC50 [3]: < 6.00; IC50 ([4]; IC50 (nM) 5-HT2c, human 5-HT2c, Example 16 table): > 1000 nM
 |  |  | CN1CCN(c2nc(C3(c4cccc(Cl)c4)CCOCC3)cs2)CC1 [Compound 63] | > 1000 nM | < 100 nM | > 1000 nM | < 1000 nM | 
 |  |  | CN1CCN(c2nc(C3(c4ccccc4F)CCCCC3)cs2)CC1 [Compound 83] | < 500 nM | < 100 nM | > 1000 nM | < 100 nM | 
 |  |  | CN1CCN(c2nc(C3(c4ccccc4F)CCCC3)cs2)CC1 [Compound 93] | < 100 nM | < 100 nM | > 1000 nM | < 100 nM | 

Compound | IC50 ([1]; Example 100 table) | IC50 [2, 5] | IC50 ([3]; Example 100 table) | IC50 ([1]; Example 101 table) | IC50 [2, 7] | IC50 ([3]; Example 101 table) | IC50 [4, 8] | other results
CN1CCN(c2nc(C3(c4ccccc4F)CCOCC3)cs2)CC1 [Compound 112] | > 1000 nM | < 100 nM | > 1000 nM |  |  |  |  | 
